These results are taken from ChEMBL document CHEMBL4610129, “Discovery of Novel Selective and Orally Bioavailable Phosphodiesterase-1 Inhibitors for the Efficient Treatment of Idiopathic Pulmonary Fibrosis” (J Med Chem, 2020).

In one series the target is T1, Cytochrome P450 1A2 (Homo sapiens, UniProt P05177).
T1 sequence (P05177 whole entry): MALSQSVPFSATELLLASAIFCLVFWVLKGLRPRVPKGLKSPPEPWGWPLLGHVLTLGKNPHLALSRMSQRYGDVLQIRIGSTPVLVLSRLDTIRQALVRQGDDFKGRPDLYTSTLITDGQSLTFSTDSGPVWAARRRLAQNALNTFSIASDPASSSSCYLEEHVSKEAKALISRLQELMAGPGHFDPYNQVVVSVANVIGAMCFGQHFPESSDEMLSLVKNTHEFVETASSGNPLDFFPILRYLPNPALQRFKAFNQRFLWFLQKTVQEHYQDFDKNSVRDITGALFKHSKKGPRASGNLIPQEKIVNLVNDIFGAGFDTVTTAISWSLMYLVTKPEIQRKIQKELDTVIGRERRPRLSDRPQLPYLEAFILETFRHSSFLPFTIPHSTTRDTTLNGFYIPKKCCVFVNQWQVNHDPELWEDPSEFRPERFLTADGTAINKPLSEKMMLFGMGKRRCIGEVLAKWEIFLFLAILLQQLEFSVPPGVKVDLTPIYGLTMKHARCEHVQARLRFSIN
In words: Inhibition of human CYP1A2. Format: ADME.

Series [1] can be described thus: Half life in human liver microsomes. Format: ADME, Microsome.
The subject of a further series is Rattus norvegicus. In words: Anti-pulmonary fibrosis activity in Sprague-Dawley rat model of BLM-induced idiopathic pulmonary fibrosis assessed as reduction in mid-expiratory flow at 10 mg/kg, po dosed daily for 28 days by mka noninvasive pulmonary monitoring system based method. Format: functional, organism-based.
Series [2] in a line: Cmax in Sprague-Dawley rat at 5 mg/kg, po. In kind it is ADME, organism-based. Also on record: dose 5 mg/kg, route oral. To be noted: in vivo.
Series [3] addresses Voltage-gated inwardly rectifying potassium channel KCNH2 (Homo sapiens, UniProt Q12809). The series is described as follows: Inhibition of human ERG.
The species named for another series is Homo sapiens. In words: Anti-pulmonary fibrosis activity in human HLF assessed as reduction in TGF-beta-induced myofibroblast differentiation by measuring reduction in fibronectin protein expression incubated for 48 hrs by Western blot analysis. Format: functional.
A short description of series [4]: MRT (0 to t) in Sprague-Dawley rat at 5 mg/kg, po. Format: ADME, organism-based. To be noted: in vivo.
Series [5] in a line: Half life in rat liver microsomes. Format: ADME, Microsome.

Structures are written as SMILES. The source made the active and inactive calls. No cut-off for these calls is given here.

Chain of Voltage-gated inwardly rectifying potassium channel KCNH2 (Q12809 whole entry): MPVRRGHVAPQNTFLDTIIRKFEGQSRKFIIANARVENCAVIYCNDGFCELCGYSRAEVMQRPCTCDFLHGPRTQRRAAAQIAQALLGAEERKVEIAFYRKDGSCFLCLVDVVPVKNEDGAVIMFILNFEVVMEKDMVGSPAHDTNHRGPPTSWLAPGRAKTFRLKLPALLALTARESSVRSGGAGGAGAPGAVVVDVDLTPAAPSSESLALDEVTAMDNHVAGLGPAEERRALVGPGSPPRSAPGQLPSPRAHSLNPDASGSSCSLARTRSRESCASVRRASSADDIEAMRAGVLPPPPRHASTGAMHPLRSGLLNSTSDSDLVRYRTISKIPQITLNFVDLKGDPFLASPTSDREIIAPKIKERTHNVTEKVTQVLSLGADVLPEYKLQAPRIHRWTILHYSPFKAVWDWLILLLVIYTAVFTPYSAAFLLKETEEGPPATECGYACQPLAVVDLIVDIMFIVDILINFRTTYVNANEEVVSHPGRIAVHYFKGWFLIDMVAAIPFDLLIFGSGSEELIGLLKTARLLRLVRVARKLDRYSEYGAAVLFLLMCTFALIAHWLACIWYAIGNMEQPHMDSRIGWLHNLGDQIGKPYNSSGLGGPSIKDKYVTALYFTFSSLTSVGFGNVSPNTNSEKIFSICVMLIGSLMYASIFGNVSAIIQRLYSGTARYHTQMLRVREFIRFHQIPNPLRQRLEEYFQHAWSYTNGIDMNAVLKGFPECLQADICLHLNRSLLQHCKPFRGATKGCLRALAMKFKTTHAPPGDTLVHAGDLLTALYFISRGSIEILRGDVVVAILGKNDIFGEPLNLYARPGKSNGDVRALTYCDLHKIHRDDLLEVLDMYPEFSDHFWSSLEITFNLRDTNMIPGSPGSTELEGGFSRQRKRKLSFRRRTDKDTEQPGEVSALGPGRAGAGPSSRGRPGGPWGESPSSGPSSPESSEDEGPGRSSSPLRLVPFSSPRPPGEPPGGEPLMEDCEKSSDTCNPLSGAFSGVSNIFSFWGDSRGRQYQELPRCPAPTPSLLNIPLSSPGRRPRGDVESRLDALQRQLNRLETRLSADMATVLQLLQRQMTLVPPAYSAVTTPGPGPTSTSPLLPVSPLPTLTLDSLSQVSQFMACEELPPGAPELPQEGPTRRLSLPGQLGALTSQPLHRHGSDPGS

Regarding `C[C@@H](Nc1nc2c(cnn2C(C)(C)C)c(=O)n1Cc1ccc(F)cc1)c1ccc(Cl)cc1`, the IC50 against Cytochrome P450 1A2 is greater than 25 µM; in series [3] it was 11 µM. Moreover, the half-life is 15.7 min in series [1] and 15.8 to 16 min in series [5]. Besides, in the series with Rattus norvegicus, the result was Active. Moreover, the highest level in series [2] (Cmax) was 169 ng/mL. The Activity entry in the series filed under Homo sapiens was “Dose-dependent effect”. Moreover, in series [4], the MRT last was 6.88 h.
